{"source": "PubChem BioAssay AID2060886", "about": "(Molecular Pharmacology Branch, DTP, NCI, 2025);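 also: spheroids exposed to the agents for seven days before the readout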", "tested_on": "653999-131-R-J2-PDC complex spheroids, growth inhibition", "assay": "Anticancer human tumor 653999-131-R-J2-PDC patient-derived lung adenocarcinoma cell line growth inhibition [RAS]", "settings": "for IC50: curve of first compound; for viability, T/C: stronger effect = lower value", "method_in_brief": "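Multi-cell-type spheroids: tumor cells plus HUVEC endothelial cells and mesenchymal stem cells. RAS-pathway inhibitors were combined with targeted agents, each dosed in half-log steps down from clinical Cmax, or from 10 microM when Cmax was unknown.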", "data": [{"smiles": "CCN1CCN(Cc2ccc(Nc3ncc(F)c(-c4cc(F)c5nc(C)n(C(C)C)c5c4)n3)nc2)CC1", "note": "+ CCn1c(-c2cc(N3CCN(C)CC3)cnc2C(C)OC)c2c3cc(ccc31)-c1csc(n1)CC(NC(=O)C1CC1C)C(=O)N1CCCC(N1)C(=O)OCC(C)(C)C2", "values": [{"measurement": "IC50", "setting": "second compound 0.000949 µM", "result": "> 1000", "unit": "nM"}, {"measurement": "IC50", "setting": "second compound 0.003 µM", "result": 94.8, "unit": "nM"}, {"measurement": "IC50", "setting": "second compound 0.00949 µM", "result": 5.9, "unit": "nM"}, {"measurement": "IC50", "setting": "second compound 0.03 µM", "result": "< 3.16", "unit": "nM"}, {"measurement": "IC50", "setting": "second compound 0.0949 µM", "result": "< 3.16", "unit": "nM"}, {"measurement": "IC50", "setting": "second compound 0.3 µM", "result": "< 3.16", "unit": "nM"}, {"measurement": "viability, T/C", "setting": "second compound 0.000949 µM, first compound 0.00316 µM", "result": 81.5, "unit": "%"}, {"measurement": "viability, T/C", "setting": "second compound 0.000949 µM, first compound 0.01 µM", "result": 62.4, "unit": "%"}, {"measurement": "viability, T/C", "setting": "second compound 0.000949 µM, first compound 0.0316 µM", "result": 66.9, "unit": "%"}, {"measurement": "viability, T/C", "setting": "second compound 0.000949 µM, first compound 0.1 µM", "result": 58.1, "unit": "%"}, {"measurement": "viability, T/C", "setting": "second compound 0.000949 µM, first compound 0.316 µM", "result": 62.6, "unit": "%"}, {"measurement": "viability, T/C", "setting": "second compound 0.000949 µM, first compound 1 µM", "result": 58, "unit": "%"}, {"measurement": "viability, T/C", "setting": "second compound 0.003 µM, first compound 0.00316 µM", "result": 63.4, "unit": "%"}, {"measurement": "viability, T/C", "setting": "second compound 0.003 µM, first compound 0.01 µM", "result": 66.9, "unit": "%"}, {"measurement": "viability, T/C", "setting": "second compound 0.003 µM, first compound 0.0316 µM", "result": 62.3, "unit": "%"}, {"measurement": "viability, T/C", "setting": "second compound 0.003 µM, first compound 0.1 µM", "result": 49.5, "unit": "%"}, {"measurement": "viability, T/C", "setting": "second compound 0.003 µM, first compound 0.316 µM", "result": 46.2, "unit": "%"}, {"measurement": "viability, T/C", "setting": "second compound 0.003 µM, first compound 1 µM", "result": 47.5, "unit": "%"}, {"measurement": "viability, T/C", "setting": "second compound 0.00949 µM, first compound 0.00316 µM", "result": 56.6, "unit": "%"}, {"measurement": "viability, T/C", "setting": "second compound 0.00949 µM, first compound 0.01 µM", "result": 45.9, "unit": "%"}, {"measurement": "viability, T/C", "setting": "second compound 0.00949 µM, first compound 0.0316 µM", "result": 37, "unit": "%"}, {"measurement": "viability, T/C", "setting": "second compound 0.00949 µM, first compound 0.1 µM", "result": 30.4, "unit": "%"}, {"measurement": "viability, T/C", "setting": "second compound 0.00949 µM, first compound 0.316 µM", "result": 34, "unit": "%"}, {"measurement": "viability, T/C", "setting": "second compound 0.00949 µM, first compound 1 µM", "result": 33.1, "unit": "%"}, {"measurement": "viability, T/C", "setting": "second compound 0.03 µM, first compound 0.00316 µM", "result": 24.2, "unit": "%"}, {"measurement": "viability, T/C", "setting": "second compound 0.03 µM, first compound 0.01 µM", "result": 30.9, "unit": "%"}, {"measurement": "viability, T/C", "setting": "second compound 0.03 µM, first compound 0.0316 µM", "result": 30.9, "unit": "%"}, {"measurement": "viability, T/C", "setting": "second compound 0.03 µM, first compound 0.1 µM", "result": 24.4, "unit": "%"}, {"measurement": "viability, T/C", "setting": "second compound 0.03 µM, first compound 0.316 µM", "result": 26.3, "unit": "%"}, {"measurement": "viability, T/C", "setting": "second compound 0.03 µM, first compound 1 µM", "result": 29.4, "unit": "%"}, {"measurement": "viability, T/C", "setting": "second compound 0.0949 µM, first compound 0.00316 µM", "result": 30.6, "unit": "%"}, {"measurement": "viability, T/C", "setting": "second compound 0.0949 µM, first compound 0.01 µM", "result": 26.6, "unit": "%"}, {"measurement": "viability, T/C", "setting": "second compound 0.0949 µM, first compound 0.0316 µM", "result": 15.7, "unit": "%"}, {"measurement": "viability, T/C", "setting": "second compound 0.0949 µM, first compound 0.1 µM", "result": 22.2, "unit": "%"}, {"measurement": "viability, T/C", "setting": "second compound 0.0949 µM, first compound 0.316 µM", "result": 24.3, "unit": "%"}, {"measurement": "viability, T/C", "setting": "second compound 0.0949 µM, first compound 1 µM", "result": 25.4, "unit": "%"}, {"measurement": "viability, T/C", "setting": "second compound 0.3 µM, first compound 0.00316 µM", "result": 23.3, "unit": "%"}, {"measurement": "viability, T/C", "setting": "second compound 0.3 µM, first compound 0.01 µM", "result": 24.7, "unit": "%"}, {"measurement": "viability, T/C", "setting": "second compound 0.3 µM, first compound 0.0316 µM", "result": 17.5, "unit": "%"}, {"measurement": "viability, T/C", "setting": "second compound 0.3 µM, first compound 0.1 µM", "result": 17.7, "unit": "%"}, {"measurement": "viability, T/C", "setting": "second compound 0.3 µM, first compound 0.316 µM", "result": 18.1, "unit": "%"}, {"measurement": "viability, T/C", "setting": "second compound 0.3 µM, first compound 1 µM", "result": 29.2, "unit": "%"}]}]}
